In US20240140944A1, “NOVEL NAPHTHYRIDINONE DERIVATIVE HAVING INHIBITORY ACTIVITY AGAINST ECTONUCLEOTIDE PYROPHOSPHATASE-PHOSPHODIESTERASE AND USE THEREOF” (TXINNO BIOSCIENCE INC., priority 2020, published 2024):
Counter-ions that a name gives are not always drawn.

Target: T1, human recombinant ENPP1 enzymes (Homo sapiens, UniProt P22413)
T1 construct: purchased R & D systems
T1 sequence (P22413 1-925): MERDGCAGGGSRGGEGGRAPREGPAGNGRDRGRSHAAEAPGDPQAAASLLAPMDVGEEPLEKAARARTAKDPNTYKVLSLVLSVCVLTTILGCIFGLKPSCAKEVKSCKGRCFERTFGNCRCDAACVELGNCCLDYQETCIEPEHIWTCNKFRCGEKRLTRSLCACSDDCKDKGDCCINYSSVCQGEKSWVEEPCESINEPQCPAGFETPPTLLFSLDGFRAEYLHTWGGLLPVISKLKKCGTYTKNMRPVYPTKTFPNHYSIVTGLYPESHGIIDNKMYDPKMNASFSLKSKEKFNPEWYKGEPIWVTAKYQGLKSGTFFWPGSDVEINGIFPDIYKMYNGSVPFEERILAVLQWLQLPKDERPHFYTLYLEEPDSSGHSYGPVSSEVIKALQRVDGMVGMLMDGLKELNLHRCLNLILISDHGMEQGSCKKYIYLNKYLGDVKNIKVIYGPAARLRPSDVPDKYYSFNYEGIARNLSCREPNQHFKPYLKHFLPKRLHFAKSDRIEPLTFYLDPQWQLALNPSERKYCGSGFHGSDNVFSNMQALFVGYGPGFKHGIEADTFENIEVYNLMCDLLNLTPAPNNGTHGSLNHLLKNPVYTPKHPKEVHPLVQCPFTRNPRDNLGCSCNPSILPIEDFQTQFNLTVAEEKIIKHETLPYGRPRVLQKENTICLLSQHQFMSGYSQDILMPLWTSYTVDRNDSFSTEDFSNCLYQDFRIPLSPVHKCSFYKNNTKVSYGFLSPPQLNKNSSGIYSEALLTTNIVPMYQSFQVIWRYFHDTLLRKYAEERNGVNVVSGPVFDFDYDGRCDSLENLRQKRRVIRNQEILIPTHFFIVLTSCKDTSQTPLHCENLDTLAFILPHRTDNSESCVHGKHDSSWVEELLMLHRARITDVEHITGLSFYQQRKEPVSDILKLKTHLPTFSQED
Experiment: ENPP1 Enzyme Assay with cGAMP Substrate (AMP-Glo)
Assay type: biochemical
Conditions: human recombinant ENPP1 3 ng/reaction, cGAMP 5 μM, 37° C. 90 minutes, average of two or more tests; read-out: Enzymatic activity IC50
Procedure: ENPP1 hydrolyzes nucleotides or nucleotide derivatives to produce nucleoside-5′-monophosphate and pyrophosphate. In addition, ENPP1 hydrolyzes 2′,3′-cGAMP to produce 5′-adenosine monophosphate (AMP) and 5′-guanosine monophosphate (GMP). AMP produced from the reaction is measured using the AMP-Glo® kit (Promega). The AMP-Glo® kit contains two reagents. The first reagent terminates the AMP-producing enzymatic reaction, removes ATP and converts the produced AMP into ADP. The second reagent converts ADP to ATP which is used to generate luminescence in the luciferase reaction. The amount of luminescence measured is proportional to the amount of AMP produced by ENPP1.
The final reaction mixture contains 50 mM Tris (pH 8.5) buffer, 250 mM NaCl, 0.5 mM CaCl2), 1 μM ZnCl2, 5% glycerol and 1% DMSO. Serially diluted ENPP1 inhibitors (typically in the range of 10 μM to 0.5 nM) were pre-stored with human recombinant ENPP1 enzymes (R & D systems) at 3 ng/reaction and room temperature (RT) for 5 to 10 minutes. The reaction was initiated by addition of cGAMP (at a final concentration of 5 μM) and reacted at 37° C. for 90 minutes. At the end of the reaction, 10 μl of the AMP-Glo first reagent was added to stop the reaction and the result was stored at room temperature for 1 hour. After storage, 20 μl of an AMP detection solution (a mixture of AMP-Glo II reagent and Kinase-Glo at a ratio of 1:100) was added and stored at room temperature for 1 hour. Luminescence signals were measured using a Victor® plate reader (Perkin Elmer). The maximal activity control (containing enzymes and substrates in the presence of 1% DMSO; MAX) and the minimal activity control (containing substrates and 1% DMSO; MIN) were evaluated simultaneously. In each experiment, serially diluted reference ENPP1 inhibitors were tested as well. IC50, indicating % residual activity versus compound concentration was determined by fitting inhibition curves using the 3-parameter analysis of GraphPad Prism® software. Serially diluted samples of one compound were tested two or more times and an average IC50 of each compound was calculated.

Question: How did the IC50 turn out when `CN[C@H](C)c1ccc(-c2ccnc3[nH]c(=O)ccc23)cc1` [Example 17, (R)-5-(4-(1-(methylaminoethyl)phenyl)-1,8-naphthyridin-2(1H)-one hydrochloride] was run?
Answer: 1 to 10 µM

Question: Which IC50 does the source give for `CC(C)(C)OC(=O)NCc1cccc(-c2ccnc3[nH]c(=O)ccc23)c1` [Example 2, tert-butyl(3-(7-oxo-7,8-dihydro-1,8-naphthyridin-4-yl)benzyl)carbamate] here?
Answer: 1 to 10 µM

Question: `Cn1c(=O)ccc2c(N3CCC(CN)CC3)ccnc21` [Example 118, 5-(4-(aminomethyl)piperidin-1-yl)-1-methyl-1,8-naphthyridin-2(1H)-one hydrochloride] was tested. Which IC50 did it give?
Answer: > 10 µM

Question: How did the IC50 turn out when `NS(=O)(=O)N1CCc2cc(Nc3ccnc4[nH]c(=O)ccc34)ccc2C1` [Example 104, dihydrochloride] was run?
Answer: 1 to 10 µM

Question: For `C[C@H](NS(N)(=O)=O)c1ccc(-c2ccnc3[nH]c(=O)ccc23)cc1` [Example 47, (S)-(N-(1-(4-(7-oxo-7,8-dihydro-1,8-naphthyridin-4-yl)phenyl)ethyl)sulfamide hydrochloride], which IC50 is on record?
Answer: < 1 µM

Question: `O=c1ccc2c(-c3ccc4c(c3)CNC4)ccnc2[nH]1` [Example 26, 5-(isoindolin-5-yl)-1,8-naphthyridin-2(1H)-one hydrochloride] was tested. Which IC50 did it give?
Answer: < 1 µM

Question: How did the IC50 turn out when `O=c1ccc2c(-c3ccc(CNS(=O)(=O)C4CC4)cc3)ccnc2[nH]1` [Example 71, N-(4-(7-oxo-7,8-dihydro-1,8-naphthyridin-4-yl)benzyl)cyclopropanesulfonamide] was run?
Answer: 1 to 10 µM

Question: For `NS(=O)(=O)Nc1cccc(-c2ccnc3c2CCC(=O)N3)c1` [Example 139, N-(3-(7-oxo-5,6,7,8-tetrahydro-1,8-naphthyridin-4-yl)phenyl)sulfamide], which IC50 is on record?
Answer: < 1 µM

Question: Which IC50 does the source give for `NS(=O)(=O)NCCc1cccc(Nc2ccnc3[nH]c(=O)ccc23)c1` [Example 92, N-(3-((7-oxo-7,8-dihydro-1,8-naphthyridin-4-yl)amino)phenethyl)sulfamide dihydrochloride] here?
Answer: < 1 µM

Question: How did the IC50 turn out when `NS(=O)(=O)N(Cc1ccc(Nc2ccnc3[nH]c(=O)ccc23)cc1)C1CC1` [Example 99, N-cyclopropyl-N-(4-((7-oxo-7,8-dihydro-1,8-naphthyridin-4-yl)amino)benzyl)sulfamide dihydrochloride] was run?
Answer: 1 to 10 µM

Question: For `NS(=O)(=O)N1CCc2cc(Nc3ccnc4[nH]c(=O)ccc34)c(F)cc2C1` [Example 106, (7-fluoro-6-((7-oxo-7,8-dihydro-1,8-naphthyridin-4-yl)amino)-3,4-dihydroisoquinolin-2(1H)-yl) sulfamide dihydrochloride], which IC50 is on record?
Answer: < 1 µM

Question: Which IC50 does the source give for `Cc1ccc(S(=O)(=O)NCc2cccc(-c3ccnc4c3CCC(=O)N4)c2)cc1` [Example 147, 4-methyl-N-(3-(7-oxo-5,6,7,8-tetrahydro-1,8-naphthyridin-4-yl)benzyl)benzenesulfonamide] here?
Answer: < 1 µM

Question: How did the IC50 turn out when `NCc1cccc(-c2ccnc3c2CCC(=O)N3)c1` [Example 132, 5-(3-(aminomethyl)phenyl)-3,4-dihydro-1,8-naphthyridin-2(1H)-one hydrochloride] was run?
Answer: > 10 µM

Question: With `NS(=O)(=O)NCc1cc(Nc2ccnc3[nH]c(=O)ccc23)ccc1F` [Example 90, N-(2-fluoro-5((7-oxo-7,8-dihydro-1,8-naphthyridin-4-yl)amino)benzyl)sulfamide dihydrochloride] as the compound, how does the IC50 read?
Answer: < 1 µM

Question: With `NS(=O)(=O)NCC1CCN(c2ccnc3[nH]c(=O)ccc23)CC1` [Example 124, N-((1-(7-oxo-7,8-dihydro-1,8-naphthyridin-4-yl)piperidin-4-yl)methyl)sulfamide] as the compound, how does the IC50 read?
Answer: < 1 µM

Question: How did the IC50 turn out when `O=c1ccc2c(Nc3ccc4c(c3)CCNC4)ccnc2[nH]1` [Example 85, 5-((1,2,3,4-tetrahydroisoquinolin-6-yl)amino)-1,8-naphthyridin-2(1H)-one dihydrochloride] was run?
Answer: < 1 µM

Question: For `NS(=O)(=O)N1CCc2ccc(Nc3ccnc4c3CCC(=O)N4)cc2C1` [Example 144, (7-(7-oxo-5,6,7,8-tetrahydro-1,8-naphthyridin-4-yl)amino)-3,4-dihydroisoquinoline-2(1H)-sulfamide hydrochloride], which IC50 is on record?
Answer: < 1 µM

Question: For `NS(=O)(=O)N1Cc2ccc(Nc3ccnc4[nH]c(=O)ccc34)cc2C1` [Example 101, 5-((7-oxo-7,8-dihydro-1,8-naphthyridin-4-yl)amino)isoindolin-2-yl)sulfamide dihydrochloride], which IC50 is on record?
Answer: < 1 µM

Question: How did the IC50 turn out when `Cn1c(=O)ccc2c(N3CCC(CNS(N)(=O)=O)CC3)ccnc21` [Example 128, N-((1-(8-methyl-7-oxo-7,8-dihydro-1,8-naphthyridin-4-yl)piperidin-4-yl)methyl)sulfamide] was run?
Answer: < 1 µM

Question: `NS(=O)(=O)NCc1cc(F)c(-c2ccnc3[nH]c(=O)ccc23)c(F)c1` [Example 44, N-(3,5-difluoro-4-(7-oxo-7,8-dihydro-1,8-naphthyridin-4-yl)benzyl)sulfamide hydrochloride] was tested. Which IC50 did it give?
Answer: < 1 µM

Question: For `CCOP(=O)(O)Cc1ccc(-c2ccnc3[nH]c(=O)ccc23)cc1` [Example 74, ethylhydrogen(4-(7-oxo-7,8-dihydro-1,8-naphthyridin-4-yl)benzyl)phosphonate], which IC50 is on record?
Answer: 1 to 10 µM

Question: Which IC50 does the source give for `NS(=O)(=O)NCc1ccc(-c2ccnc3c2CCC(=O)N3)cc1` [Example 141, N-(4-(7-oxo-5,6,7,8-tetrahydro-1,8-naphthyridin-4-yl)benzyl)sulfamide] here?
Answer: < 1 µM

Question: With `CN(c1ccc2c(c1)CN(S(N)(=O)=O)CC2)c1ccnc2[nH]c(=O)ccc12` [Example 108, (7-(methyl(7-oxo-7,8-dihydro-1,8-naphthyridin-4-yl)amino)-3,4-dihydroisoquinolin-2(1H)-yl)sulfamide dihydrochloride] as the compound, how does the IC50 read?
Answer: > 10 µM

Question: How did the IC50 turn out when `Cl.Nc1ccc(F)c(-c2ccnc3[nH]c(=O)ccc23)c1` [Example 8, 5-(5-(amino-2-fluorophenyl)-1,8-naphthyridin-2(1H)-one hydrochloride] was run?
Answer: > 10 µM

Question: How did the IC50 turn out when `CC(C)(C)OC(=O)NS(=O)(=O)N1CCc2ccc(-c3ccnc4c3CCC(=O)N4)cc2C1` [Example 138, tert-butyl((7-(7-oxo-5,6,7,8-tetrahydro-1,8-naphthyridin-4-yl)-3,4-diisoquinoline-2(1H)-yl)sulfonyl)carbamate] was run?
Answer: 1 to 10 µM

Question: `NS(=O)(=O)NCc1cccc(Nc2ccnc3[nH]c(=O)ccc23)c1` [Example 89, N-(3-((7-oxo-7,8-dihydro-1,8-naphthyridin-4-yl)amino)benzyl)sulfamide dihydrochloride] was tested. Which IC50 did it give?
Answer: < 1 µM

Question: `NS(=O)(=O)N1CCC2(CCN(c3ccnc4[nH]c(=O)ccc34)CC2)C1` [Example 126, 8-(7-oxo-7,8-dihydro-1,8-naphthyridin-4-yl)-2,8-diazaspiro[4,5]decane-2-sulfamide] was tested. Which IC50 did it give?
Answer: < 1 µM

Question: With `O=C1CCc2c(-c3ccc4c(c3)CNCC4)ccnc2N1` [Example 135, 5-(1,2,3,4-tetrahydroisoquinolin-7-yl)-3,4-dihydro-1,8-naphthyridin-2(1H)-one hydrochloride] as the compound, how does the IC50 read?
Answer: > 10 µM

Question: With `CC(C)(N)c1ccc(-c2ccnc3c2CCC(=O)N3)cc1` [Example 134, 5-(4-(2-aminopropan-2-yl)phenyl)-3,4-dihydro-1,8-naphthyridin-2(1H)-one hydrochloride] as the compound, how does the IC50 read?
Answer: < 1 µM

Question: `NC1CCN(c2ccnc3[nH]c(=O)ccc23)CC1` [Example 113, 5-(4-aminopiperidin-1-yl)-1,8-naphthyridin-2(1H)-one hydrochloride] was tested. Which IC50 did it give?
Answer: < 1 µM
